Experimental data from PubChem BioAssay AID1259407 (Chemical Carcinogenesis Research Information System (CCRIS), 2018).
Calls of active or inactive are those of the source. No rule for the calls is given here.

Tested on: CCRIS mutagenicity, Ames/micronucleus/aberration tests
Assay: CCRIS mutagenicity studies
Text: The CCRIS database contains chemical records with carcinogenicity, mutagenicity, tumor promotion, and tumor inhibition test results. It was developed by the National Cancer Institute (NCI). Data are derived from studies cited in primary journals, current awareness tools, NCI reports, and other sources. Test results have been reviewed by experts in carcinogenesis and mutagenesis.
CCRIS provides historical information from the years 1985 - 2011. It is no longer updated.
This is an archive assay for CCRIS mutagenicity studies.

Measured: mutagenic call

CCCCCCCCCCO
inactive: Test System: AMES SALMONELLA TYPHIMURIUM, Strain/Indicator: TA98, Metabolic Activation: NONE, Method: PREINCUBATION inactive; negative | Test System: AMES SALMONELLA TYPHIMURIUM, Strain/Indicator: TA98, Metabolic Activation: RAT, LIVER, S-9, PHENOBARBITAL AND BETA-NAPHTHOFLAVONE, Method: PREINCUBATION inactive; negative | Test System: AMES SALMONELLA TYPHIMURIUM, Strain/Indicator: TA100, Metabolic Activation: NONE, Method: PREINCUBATION inactive; negative | Test System: AMES SALMONELLA TYPHIMURIUM, Strain/Indicator: TA100, Metabolic Activation: RAT, LIVER, S-9, PHENOBARBITAL AND BETA-NAPHTHOFLAVONE, Method: PREINCUBATION inactive; negative | Test System: AMES SALMONELLA TYPHIMURIUM, Strain/Indicator: TA102, Metabolic Activation: NONE, Method: PREINCUBATION inactive; negative | Test System: AMES SALMONELLA TYPHIMURIUM, Strain/Indicator: TA102, Metabolic Activation: RAT, LIVER, S-9, SODIUM PHENOBARBITAL AND 5,6-BENZOFLAVONE, Method: PREINCUBATION inactive; negative | Test System: AMES SALMONELLA TYPHIMURIUM, Strain/Indicator: TA104, Metabolic Activation: NONE, Method: PREINCUBATION inactive; negative | Test System: AMES SALMONELLA TYPHIMURIUM, Strain/Indicator: TA104, Metabolic Activation: RAT, LIVER, S-9, SODIUM PHENOBARBITAL AND 5,6-BENZOFLAVONE, Method: PREINCUBATION inactive; negative | Test System: AMES SALMONELLA TYPHIMURIUM, Strain/Indicator: TA1535, Metabolic Activation: NONE, Method: PREINCUBATION inactive; negative | Test System: AMES SALMONELLA TYPHIMURIUM, Strain/Indicator: TA1535, Metabolic Activation: RAT, LIVER, S-9, PHENOBARBITAL AND BETA-NAPHTHOFLAVONE, Method: PREINCUBATION inactive; negative | Test System: AMES SALMONELLA TYPHIMURIUM, Strain/Indicator: TA1537, Metabolic Activation: NONE, Method: PREINCUBATION inactive; negative | Test System: AMES SALMONELLA TYPHIMURIUM, Strain/Indicator: TA1537, Metabolic Activation: RAT, LIVER, S-9, PHENOBARBITAL AND BETA-NAPHTHOFLAVONE, Method: PREINCUBATION inactive; negative | Test System: CHINESE HAMSTER V-79, Strain/Indicator: V-79 (HPRT)/6-THIOGUANINE, Metabolic Activation: NONE, Method: STANDARD PLATE inactive; negative | Test System: CHINESE HAMSTER V-79, Strain/Indicator: V-79 (HPRT)/6-THIOGUANINE, Metabolic Activation: RAT LIVER S-9, Method: STANDARD PLATE inactive; negative | Test System: E. COLI, Strain/Indicator: WP2UVRA/PKM101, Metabolic Activation: NONE, Method: PREINCUBATION inactive; negative | Test System: E. COLI, Strain/Indicator: WP2UVRA/PKM101, Metabolic Activation: RAT, LIVER, S-9, PHENOBARBITAL AND BETA-NAPHTHOFLAVONE, Method: PREINCUBATION inactive; negative | Test System: E. COLI, Strain/Indicator: WP2UVRA, Metabolic Activation: NONE, Method: PREINCUBATION inactive; negative | Test System: E. COLI, Strain/Indicator: WP2UVRA, Metabolic Activation: RAT, LIVER, S-9, PHENOBARBITAL AND BETA-NAPHTHOFLAVONE, Method: PREINCUBATION inactive; negative

O=C1c2ccccc2CN2C(=O)c3ccccc3CN12
inactive: Test System: AMES SALMONELLA TYPHIMURIUM, Strain/Indicator: TA98, Metabolic Activation: MOUSE, LIVER, S-9, PHENOBARBITAL AND 5,6-BENZOFLAVONE, Method: STANDARD PLATE inactive; negative | Test System: AMES SALMONELLA TYPHIMURIUM, Strain/Indicator: TA98, Metabolic Activation: NONE, Method: STANDARD PLATE inactive; negative | Test System: AMES SALMONELLA TYPHIMURIUM, Strain/Indicator: TA100, Metabolic Activation: MOUSE, LIVER, S-9, PHENOBARBITAL AND 5,6-BENZOFLAVONE, Method: STANDARD PLATE inactive; negative | Test System: AMES SALMONELLA TYPHIMURIUM, Strain/Indicator: TA100, Metabolic Activation: NONE, Method: STANDARD PLATE inactive; negative | Test System: AMES SALMONELLA TYPHIMURIUM, Strain/Indicator: TA102, Metabolic Activation: MOUSE, LIVER, S-9, PHENOBARBITAL AND 5,6-BENZOFLAVONE, Method: STANDARD PLATE inactive; negative | Test System: AMES SALMONELLA TYPHIMURIUM, Strain/Indicator: TA102, Metabolic Activation: NONE, Method: STANDARD PLATE inactive; negative
